The source of these data is patent US20240156764A1, “INHIBITION OF URACIL DNA GLYCOSYLASE IN THE OPEN CONFORMATION” (CASE WESTERN RESERVE UNIVERSITY, priority 2022, published 2024).

Entries after “also recorded” stand apart in the source; their conditions may differ.

For orientation: IC50 means the concentration that inhibits the measured activity by half.

One assay deals with human UDG (Homo sapiens, UniProt P13051). The experiment in a line: Differential scanning fluorimetry (nanoDSF), intrinsic tryptophan fluorescence and scattering. The format is binding. Details: Full-length UDG at 14 μM in 137 mM NaCl. How it is done:
The data for thermophoresis was recorded at 20° C. using the blue LED at 20% and IR-Laser at 40%. The isotherm derived from the raw data and fitted according to the law of mass action. […] Then 2 μL of 10× Sypro dye and 2 μL of ddH20 (Applied biosystems cat #4461141) were added. Monitoring of fluorescence took place for 2 hr (Bioraid CFX96, Hex filter, 25-97° C., 1.6° C./2 min). Negative (−) derivative RFU raw data and plots from the machine were obtained and analyzed. […] Melting temperature (Tm) value was taken directly from the midpoint on the −dRFU/dt vs. temperature graph. Each point on the graph represents an average of three data sets. Y error bars represent the standard deviation.
Differential scanning fluorimetry (DSF) measurements were performed on a Prometheus NT.48 instrument (NanoTemper Technologies, Munich, Germany). […] The capillaries were filled with 10 μL sample and placed on the sample holder. A temperature gradient of 1° C.·min^−1 from 25 to 90° C. was applied and the intrinsic protein fluorescence at 330 and 350 nm was recorded. Additional aggregation onset temperatures are detected via back-reflection light scattering. […] Therefore, analysis of single wavelength was used to determine the melting temperature.
For orientation: DSF heats the sample and reads unfolding from a dye or from intrinsic fluorescence.

Assay [1] deals with A:8oxoG (MPG, MUTYH) repair in MCF-7 cells. The experiment in a line: Host-cell reactivation assay, A:8oxoG reporter, MCF-7. In kind it is cell-based, human. To be noted: ATA 2.5 μM.
The target of assay [2] is T1, UDG in human DLD1 colon cancer cell lysate (Homo sapiens, UniProt P13051).
T1 construct: IC50 in DLD1 UDG containing cell lysate; other: estimated; effect on 23mer ssDNA generation; DLD1 cell extracts; extracts where UDG was present
T1 sequence (P13051 45-313 limits assumed): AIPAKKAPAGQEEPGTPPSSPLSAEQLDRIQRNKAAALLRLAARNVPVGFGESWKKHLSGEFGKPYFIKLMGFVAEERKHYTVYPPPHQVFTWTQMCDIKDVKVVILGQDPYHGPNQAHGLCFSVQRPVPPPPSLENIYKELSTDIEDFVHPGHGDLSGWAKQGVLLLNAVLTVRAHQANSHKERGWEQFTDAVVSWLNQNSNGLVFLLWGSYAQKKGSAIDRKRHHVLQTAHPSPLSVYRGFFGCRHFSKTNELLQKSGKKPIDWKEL
Put plainly: DNA cleavage assay with cell-free protein extracts from DLD1 cells. The format is biochemical. How it is done:
A: human cancer lysates were extracted from DLD1 human colon cancer cell lines. […] 20% polyacrylamide nucleic acid urea gel electrophoresis was used to resolve the DNA bands at room temperature, 200 v for 50 min. DNA products were visualized using a Typhoon Trio+Variable Mode Imager (Amersham Biosciences) with excitation and emission wavelengths set to 532 nm and 585 nm respectively, PMT set to 400, and pixel size resolution set to 100 μm. […] Either uracil DNA (U:A bp) or thymidine DNA (T:A bp) was added to initiate the reaction and incubated for additional 20 min at 37° C. 20% polyacrylamide nucleic acid urea gel electrophoresis was used to resolve the DNA bands. Gel data were analyzed using ImageJ software. DNA bands were corrected using a constant background band intensity subtraction step. Then, percent cleavage was calculated by using fluorescence intensity of the cleaved 23-mer DNA strand divided by the sum of the fluorescence bands (23mer+40mer DNA).
The reaction was pre-incubated for 20 min at 37° C. before a fluorescently-labeled TAMRA DNA duplex oligo containing a single U:A bp (final 30 nM) was added to each reaction well with a total reaction volume of 50 μL/well. Plate was further incubated for 20 min at 37° C. 5 μL of a denaturing loading dye (20 mg of bromophenol blue, 9.7 ml of formamide plus 300 μL of 10M NaOH) was added to stop each reaction. DNA products from each reaction were resolved on a 20% denaturing polyacrylamide nucleic acid urea gel (5.3 grams of urea was dissolved in 2.3 mL of 5×TBE, 5 mL of 40% bis-acrylamide 29:1 solution). 5×TBE buffer was prepared by dissolving 54 grams of tris base, 28 grams of boric acid, and 4.5 grams of EDTA in a liter of distilled H2O. Gels were processed at 200V for 60 mins at room temperature, in the dark. […] Gel data were analyzed using ImageJ software. […] Then, percent cleavage was calculated by using fluorescence intensity of the cleaved 23-mer DNA strand divided by the sum of the fluorescence bands (23mer+40mer DNA strands)*100 for untreated and treated conditions. […]

Assay [3] relates to T:G basepairs (TDG, MBD4) repair in MCF-7 cells. The experiment in a line: Host-cell reactivation assay, T:G reporter, MCF-7. The format is cell-based, human. Conditions: ATA 2.5 μM. The method, then: Panel A: 1.25 μM and panel B: 2.5 μM. Reporter expression was calculated for each dose of ATA as described in prior publications and normalized to DMSO treatment.
Removal of uracil in cells was measured using a reporter plasmid containing a dU:dG base pair (referred to as BFP_U), as described previously. In brief, dU is substituted into the transcribed strand at position 191 of the blue fluorescent protein (BFP) gene. When RNA polymerase II incorporates dA opposite dU, transcripts encoding wild type BFP are produced. Upon repair, dU is replaced by dC, leading to production of transcripts encoding a non-fluorescent protein. […] A corresponding cocktail of damage-free plasmids containing pmax BFP (100 ng per transfection), pmax GFP (100 ng per transfection), and carrier plasmid (800 ng per transfection) constituted the “undamaged” cocktail. After normalizing to expression of the pmax,GFP transfection control, expression of BFP_U in the damaged cocktail was normalized to similarly normalized expression of pmax_BFP in the undamaged cocktail. The reciprocal of BFP_U reporter expression was calculated for each experimental condition. […] This creates a premature stop codon, completely abolishing fluorescence. Removal of thymidine followed by insertion of dC opposite dG restores reporter fluorescence.

Sequence of human UDG (P13051 whole entry): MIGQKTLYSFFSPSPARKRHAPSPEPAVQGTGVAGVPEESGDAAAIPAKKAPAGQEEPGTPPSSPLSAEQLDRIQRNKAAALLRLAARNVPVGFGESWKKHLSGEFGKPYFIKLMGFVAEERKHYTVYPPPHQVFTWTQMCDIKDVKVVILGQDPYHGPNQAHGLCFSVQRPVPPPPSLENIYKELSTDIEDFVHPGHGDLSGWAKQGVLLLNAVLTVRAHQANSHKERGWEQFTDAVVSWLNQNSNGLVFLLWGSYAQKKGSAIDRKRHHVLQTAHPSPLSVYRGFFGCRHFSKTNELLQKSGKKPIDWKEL

Take `O=C(O)C1=CC(=C(c2ccc(O)c(C(=O)O)c2)c2ccc(O)c(C(=O)O)c2)C=CC1=O` [ATA, aurintricarboxylic acid]: on human UDG (UDG in the presence of ATA vs UDG alone), the “protein aggregation onset (scattering)” value is recorded as “induced protein aggregation at lower temperatures than UDG alone”. The “mean melting temperature of UDG in the presence of ATA” value at human UDG (nanoDSF, 330 nm, UDG alone 53.5 °C) is 51 °C. The “inhibition of repair of A:8oxoG basepair” value in assay [1] is “not inhibiting”. Further, the “effect on 23mer ssDNA generation” value in assay [2] (12.5 μM ATA, DLD1 cell extracts) is “minimal effect”. Further, the “inhibition of 23mer ssDNA appearance” value in assay [2] (50 μM ATA, extracts where UDG was present) is given as “near-complete inhibition; also recorded: completely inhibited”. In addition, the IC50 in assay [2] (read-out: IC50 in DLD1 UDG containing cell lysate) is about 32.5 µM. Further, in assay [3], the “inhibition of repair of T:G basepair” value is “not inhibiting”.
